Test results taken from publication PMC5760734, “Development of an oral once-weekly drug delivery system for HIV antiretroviral therapy” (Nature Communications, 2018).
Like-named read-outs stand apart in the source and are kept apart here.

Columns and labels:
HIV = tested on: HIV; parameters: method as in ref 2–6 (a number printed in a supplementary file, which may have a reference list of its own: not looked up in the article's list); conditions: monotherapy or dual therapy with rilpivirine, after a two-year follow up; cited from earlier work
[1] = tested on: HIV reference strain NL4-3; parameters: method as in ref 46,55–57 (a number printed in a supplementary file, which may have a reference list of its own: not looked up in the article's list); conditions: wild-type virus; cited from earlier work
[2] = tested on: drug-resistant HIV strains; conditions: cited from earlier work
[3] = parameters: method as in ref 58 (a number printed in a supplementary file, which may have a reference list of its own: not looked up in the article's list); conditions: cited from earlier work
[4] = Drug stability at high temperature (150 °C, 2 h), HPLC; assay type: physicochemical; conditions: 150 °C for 2 h
Procedure: To determine the drug stability at high temperatures, the drug was weighed in a 20 mL glass vial, and placed in a convection oven at 150 °C for 2 h. Drug was dissolved in methanol, and the concentration was compared to that of an unheated standard of the same initial concentration via HPLC.

[5] = Plasma pharmacokinetics of immediate release and gastric resident dosage forms in pigs; assay type: in vivo, Yorkshire pigs
Procedure: All animal experiments were approved by the Committee on Animal Care at the Massachusetts Institute of Technology. In vivo pharmacokinetics were evaluated in an unblinded fashion in female Yorkshire pigs (50–95 kg) that were randomly assigned to the immediate release or sustained release groups. Animals were fed daily in the morning and in the evening with a diet consisting of pellets (Laboratory mini-pig growler diet, 5081), with a midday snack consisting of various fruits and vegetables. Specifically, the pellets were 5/32” x ¼” length, and consisted of ground oats, alfalfa meal, wheat middlings, soybean meal, dried beet pulp, salts and other micronutrients.
To determine the oral pharmacokinetics of immediate release dosage forms of DTG and CAB, 50 mg of DTG and 30 mg of CAB were weighed and filled into gelatine capsules. For RPV pharmacokinetics, RPV base was dissolved in poly(ethylene glycol) (molecular weight—400 Da) containing 10-fold molar excess of citric acid. The concentration of RPV base in this solution was 5 mg/mL and 5 mL of the solution was dosed in a gelatine capsule. […] To determine oral pharmacokinetics from gastric retentive dosage forms, the arms of dosage forms (2–3/pig containing 350 mg DTG, 175 mg RPV or 210 mg CAB) were folded into capsule shells immediately prior to dosing. […]. The capsules containing drug or dosage form were delivered into the intestine or stomach respectively. At various time points, blood samples (0.5 mL) were collected from a central line connected to the external jugular vein or from a mammary vein into […] Vacutainer gold top tubes (Becton, Dickinson and Co. USA). Plasma samples were separated from blood by centrifugation (1800g, 10 min at 4 °C) and were stored at −80 °C. Atropine can reduce gastric acid production and gastric motility which may affect the overall drug pharmacokinetics and the gastric retention of the dosage form. […]. Drug concentrations in the plasma were analysed using UPLC-MS/MS. Plasma samples (100 µL) were spiked with 200 µL acetonitrile solution of 250 µg/mL maraviroc (internal standard) to cause precipitation. Samples were vortexed and sonicated for 10–20 min and then centrifuged (21130g, 10 min). Two hundred microliters of solution were pipetted into a 96-well plate containing 200 µL of nanopure water. Finally, 2.5 μL was injected onto the UPLC–ESI–MS system for analysis.
UPLC separation was carried out on a Waters® UPLC aligned with a Waters® Xevo–TQ-SMS mass spectrometer (Waters Ltd., UK). MassLynx® 4.1 software was used for data acquisition and analysis. Liquid chromatography separation was performed on an Acquity® UPLC CSH C18 (50 × 2.1 mm, 1.7 μm particle size) column at 50 °C. The mobile phase consisted of acetonitrile spiked with 0.1% formic acid and 10 mM ammonium formate solution. The mobile phase was flowed at a rate of 0.6 mL/min using a time and solvent gradient composition. The initial composition (100% aqueous) was held for 1 min, following which the composition was changed linearly to 20% organic phase over the next 0.25 min. The composition was then brought to 100% organic over 1.25 min, held for 0.5 min and finally shifted to the initial composition and held constant until the end of the run for column equilibration. The total run time was 4 min and sample injection volume was 2.5 μL. The mass spectrometer was operated in the multiple reaction monitoring (MRM) mode. Sample introduction and ionization was by electrospray ionization (ESI) in the positive ion mode. DTG, RPV and CAB were analysed at mass-to-charge ratios of […] respectively. Stock solutions of DTG, RPV, CAB, and an internal standard maraviroc were prepared in methanol at a concentration of 500 μg/mL. A ten-point calibration curve was prepared ranging from 2.5–5000 ng/mL. Quality control samples were prepared in a similar procedure using an independent stock solution at three concentrations (5, 50 and 500 ng/mL). […]

[6] = humans receiving the usual oral dose; stated by Reviewer 1, no reference; cited from earlier work
[7] = immediate release formulation, pigs

C[C@@H]1CCO[C@H]2Cn3cc(C(=O)NCc4ccc(F)cc4F)c(=O)c(O)c3C(=O)N12 [DTG, dolutegravir]
patients with plasma viremia levels of <50 copies/mL (HIV): > 95 % patients | IC50 [1]: 70 nM | m (slope parameter of Hill curve) [1]: 1.2 | Fold change in IC50 (ρ) ([2]; mutation E138K/Q148K): 19.00 | Fold change in IC50 (ρ) ([2]; mutation E138K): 0.40 | Fold change in IC50 (ρ) ([2]; mutation E157Q/R263K): 19.90 | Fold change in IC50 (ρ) ([2]; mutation E157Q): 0.01 | Fold change in IC50 (ρ) ([2]; mutation G140S/Q148R): 7.98 | Fractional change in slope (σ) ([2]; mutation G140S/Q148R): 0.01 | Fold change in IC50 (ρ) ([2]; mutation G140S): 0.76 | Fractional change in slope (σ) ([2]; mutation G140S): -0.01 | Fold change in IC50 (ρ) ([2]; mutation H51Y/R263K): 6.95 | Fold change in IC50 (ρ) ([2]; mutation H51Y): 1.25 | Fold change in IC50 (ρ) ([2]; mutation M50I/R263K): 15.59 | Fold change in IC50 (ρ) ([2]; mutation M50I): 1.94 | Fold change in IC50 (ρ) ([2]; mutation N155H): 1.96 | Fold change in IC50 (ρ) ([2]; mutation Q148K): 1.10 | Fold change in IC50 (ρ) ([2]; mutation Q148R/N155H): 10.00 | Fold change in IC50 (ρ) ([2]; mutation Q148R): 1.20 | Fold change in IC50 (ρ) ([2]; mutation R263K): 2.00 | Half-life, τ1/2 [3]: 14 h | Cmax ([3]; maximum plasma concentration at steady state, perfect adherence): 8.75 µM | stability at elevated temperature [4]: stable | Tmax ([5]; female, Yorkshire, pig, plasma, oral, immediate release formulation, pigs, post-dose, read-out: time of maximum plasma concentration (converted)): 6 h | mean peak plasma concentration relative to immediate release ([5]; gastric resident system, pigs): comparable to that of the immediate release formulation | time to mean peak plasma concentration ([5]; gastric resident system, pigs): ≤ 6 h | average (sustained) plasma drug concentrations throughout the week following dosing ([5]; gastric resident system, pigs, n = 3): 200 to 800 ng/mL | duration of sustained drug concentrations ([5]; gastric resident system, single dose): up to 1 week | day at or after which no drug was detected in plasma [5, 7]: 2 days | plasma drug concentrations on day 1 [5, 7]: low but detectable | time to detectable plasma concentrations [5, 7]: ≤ 15 min | average maximum plasma concentration ([5]; immediate release formulation, pigs, n = 3): ~ 500 ng/mL | usual Cmax in humans [6]: 3700 ng/mL
